Laboratory results published in patent publication US20150344457A1, “METHODS OF INHIBITING PRMT5” (EPIZYME, INC., priority 2012, published 2015).
Where two headings read alike, the source gives them in different places.

Test system: Z-138 cells
Assay: Z-138 Methylation Assay (In Cell Western for symmetric di-methyl arginine and DNA content)
Type: cell-based
Conditions: Homo sapiens
Summary of the method: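 Symmetric di-methyl arginine signal (800 nm) ratioed to DNA content (700 nm) by In Cell Western after four days of compound treatment of Z-138 suspension cells seeded at 50,000 cells/mL. Percent inhibition set between DMSO and 3 μM reference wells; IC50 curves from triplicates.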

[1] = Table A-2, 96 hours, symmetric di-methyl arginine, read-out: ICW EC50

SMILES | EC50 [1] [µM] | EC50 (Table D-2, read-out: ICW EC50) [µM]
O=C(COc1cccc(CN2CCOCC2)c1)NCC(O)CN1CCc2ccccc2C1 (centres unmarked) [Compound A75] | < 0.1 | –
C[C@H](Oc1cccc2cccnc12)C(=O)NC[C@H](O)CN1CCc2ccccc2C1 [Compound A76] | 0.101 to 1 | –
O=C(COc1ccccc1N1CCOCC1)NC[C@H](O)CN1CCc2ccccc2C1 [Compound A77] | < 0.1 | –
O=C(COc1ccccc1N1CCNCC1)NCC(O)CN1CCc2ccccc2C1 (centres unmarked) [Compound A79] | 0.101 to 1 | –
CN1C(=O)COc2cccc(OCC(=O)NCC(O)CN3CCc4ccccc4C3)c21 (centres unmarked) [Compound A80] | 0.101 to 1 | –
CN1CCOc2cccc(OCC(=O)NCC(O)CN3CCc4ccccc4C3)c21 (centres unmarked) [Compound A81] | < 0.1 | –
Cn1ncc2c(OCC(=O)NCC(O)CN3CCc4ccccc4C3)cccc21 (centres unmarked) [Compound A82] | < 0.1 | –
O=C(COc1cccc(C(=O)N2CCOCC2)c1)NCC(O)CN1CCc2ccccc2C1 (centres unmarked) [Compound A83] | 0.101 to 1 | –
CN1CCN(c2ccccc2OCC(=O)NC[C@H](O)CN2CCc3ccccc3C2)CC1 [Compound A84] | 0.101 to 1 | –
O=C(COc1ccccc1OCCN1CCOCC1)NC[C@H](O)CN1CCc2ccccc2C1 [Compound A86] | 0.101 to 1 | –
CC(=O)N1CCN(c2ccccc2OCC(=O)NCC(O)CN2CCc3ccccc3C2)CC1 (centres unmarked) [Compound A90] | 0.101 to 1 | –
O=C(COc1cccc2c1CCNC2)NCC(O)CN1CCc2ccccc2C1 (centres unmarked) [Compound A91] | 0.101 to 1 | –
O=C(COc1cccc2nccnc12)NCC(O)CN1CCc2ccccc2C1 (centres unmarked) [Compound A92] | < 0.1 | –
O=C(COc1c(CN2CCOCC2)ccc2cccnc12)NC[C@H](O)CN1CCc2ccccc2C1 [Compound A94] | 0.101 to 1 | –
O=C(COc1ccc2c(cnn2C2CCNC2)c1)NCC(O)CN1CCc2ccccc2C1 (centres unmarked) [Compound A95] | 0.101 to 1 | –
OC(COc1cccc(-c2ccc3ncn(-c4ccccc4)c3c2)c1)CN1CCc2ccccc2C1 (centres unmarked) [Compound D104] | – | 1 to 10
OC(COc1cccc(-c2ccc3ncn(Cc4ccccc4)c3c2)c1)CN1CCc2ccccc2C1 (centres unmarked) [Compound D105] | – | 1 to 10
O=c1[nH]c2ccc(-c3cccc(OCC(O)CN4CCc5ccccc5C4)c3)cc2[nH]1 (centres unmarked) [Compound D109] | – | 0.101 to 1
CN(CC(O)CN1CCc2ccccc2C1)c1cccc(CNC2CCOCC2)c1 (centres unmarked) [Compound D116] | – | 1 to 10
Cn1cnc2ccc(-c3cncc(NCC(O)CN4CCc5ccccc5C4)n3)cc21 (centres unmarked) [Compound D121] | – | 0.101 to 1
O=C(c1cccc(-c2cccc(OCC(O)CN3CCc4ccccc4C3)c2)c1)N1CCOCC1 (centres unmarked) [Compound D126] | – | 1 to 10
OC(COc1cccc(-c2ccc(C(F)(F)F)cc2Cl)c1)CN1CCc2ccccc2C1 (centres unmarked) [Compound D127] | – | 10 to 40
CS(=O)(=O)Nc1ccc(-c2cccc(OCC(O)CN3CCc4ccccc4C3)c2)cc1 (centres unmarked) [Compound D129] | – | 1 to 10
CS(=O)(=O)c1ccccc1-c1cccc(OCC(O)CN2CCc3ccccc3C2)c1 (centres unmarked) [Compound D131] | – | 1 to 10
COc1ccc(Cl)cc1-c1cccc(OCC(O)CN2CCc3ccccc3C2)c1 (centres unmarked) [Compound D134] | – | 1 to 10
COC(=O)c1cccc(-c2cccc(OCC(O)CN3CCc4ccccc4C3)c2)c1 (centres unmarked) [Compound D135] | – | > 20
Cn1ncc2ccc(-c3cc(COCC(O)CN4CCc5ccccc5C4)on3)cc21 (centres unmarked) [Compound D136] | – | 1 to 10

SMILES | EC50 [1] [µM] | EC50 (Table D-2, read-out: ICW EC50) [µM]
CC(=O)c1ccc(-c2cccc(OCC(O)CN3CCc4ccccc4C3)c2)cc1 (centres unmarked) [Compound D137] | – | 1 to 10
OC(COc1cccc(-c2cccnc2F)c1)CN1CCc2ccccc2C1 (centres unmarked) [Compound D139] | – | 1 to 10
Cn1ccc2cnc(-c3cccc(OCC(O)CN4CCc5ccccc5C4)c3)nc21 (centres unmarked) [Compound D141] | – | 0.101 to 1
Cn1ccc2ccc(-c3cccc(OCC(O)CN4CCc5ccccc5C4)c3)cc21 (centres unmarked) [Compound D147] | – | 1 to 10
CN1CCN(c2ccc(-c3cccc(OCC(O)CN4CCc5ccccc5C4)c3)cn2)CC1 (centres unmarked) [Compound D149] | – | 1 to 10
CC(C)(C)OCc1cccc(-c2cccc(OCC(O)CN3CCc4ccccc4C3)c2)c1 (centres unmarked) [Compound D150] | – | 1 to 10
CN(C)c1ccc(-c2cccc(OCC(O)CN3CCc4ccccc4C3)c2)cc1 (centres unmarked) [Compound D151] | – | 1 to 10
NC(=O)c1ccc(-c2cccc(OCC(O)CN3CCc4ccccc4C3)c2)cc1 (centres unmarked) [Compound D152] | – | 1 to 10
Cn1nccc1C(=O)Nc1cccc(OCC(O)CN2CCc3ccccc3C2)c1 (centres unmarked) [Compound D160] | – | 1 to 10
O=C(Nc1cccc(OCC(O)CN2CCc3ccccc3C2)c1)c1cncnc1 (centres unmarked) [Compound D161] | – | 1 to 10
OC(COc1cccc(-c2ccccc2Oc2ccccc2)c1)CN1CCc2ccccc2C1 (centres unmarked) [Compound D167] | – | 1 to 10
COc1ccc(-c2cccc(OCC(O)CN3CCc4ccccc4C3)c2)cc1Cl (centres unmarked) [Compound D168] | – | 10 to 40
CC(=O)Nc1cccc(-c2cccc(OCC(O)CN3CCc4ccccc4C3)c2)c1 (centres unmarked) [Compound D169] | – | 0.101 to 1
OC(COc1cccc(-c2csc3ccccc23)c1)CN1CCc2ccccc2C1 (centres unmarked) [Compound D170] | – | 1 to 10
NC(=O)c1cccc(-c2cccc(OCC(O)CN3CCc4ccccc4C3)c2)c1 (centres unmarked) [Compound D171] | – | 1 to 10
Cn1ccc2ccc(-c3cccc(OCC(O)CN4CCc5ccccc5C4)c3)nc21 (centres unmarked) [Compound D176] | – | 0.101 to 1
COC(=O)c1cncc(-c2cccc(OCC(O)CN3CCc4ccccc4C3)c2)c1 (centres unmarked) [Compound D180] | – | > 20
CNC(=O)c1cncc(-c2cccc(OCC(O)CN3CCc4ccccc4C3)c2)c1 (centres unmarked) [Compound D182] | – | 1 to 10
Cn1cnc(C(=O)Nc2cccc(OCC(O)CN3CCc4ccccc4C3)c2)c1 (centres unmarked) [Compound D183] | – | 1 to 10
O=C(c1cccc(-c2cccc(OCC(O)CN3CCc4ccccc4C3)c2)c1)N1CCCC1 (centres unmarked) [Compound D185] | – | 1 to 10
CNC(=O)c1cccc(-c2cccc(OCC(O)CN3CCc4ccccc4C3)c2)c1 (centres unmarked) [Compound D186] | – | 1 to 10
Cc1cn(C)c2cc(-c3cccc(OCC(O)CN4CCc5ccccc5C4)c3)ccc12 (centres unmarked) [Compound D187] | – | 1 to 10
Cn1cnc2cnc(-c3cccc(OCC(O)CN4CCc5ccccc5C4)c3)nc21 (centres unmarked) [Compound D191] | – | 0.101 to 1
Cn1cnc2ccc(-c3cncc(NCC(O)CN4CCc5ccccc5C4)c3)cc21 (centres unmarked) [Compound D199] | – | < 0.1
OC(COc1cccc(-c2cc(OC(F)(F)F)ccc2Cl)c1)CN1CCc2ccccc2C1 (centres unmarked) [Compound D200] | – | 10 to 40
Cn1ncc2ccc(-c3cc(NCC(O)CN4CCc5ccccc5C4)ncn3)cc21 (centres unmarked) [Compound D205] | – | 0.101 to 1
Cn1cnc2ccc(-c3cc(NCC(O)CN4CCc5ccccc5C4)ncn3)cc21 (centres unmarked) [Compound D207] | – | 0.101 to 1

Continued, values first:

EC50 [1] [µM] | EC50 (Table D-2, read-out: ICW EC50) [µM] | SMILES
0.101 to 1 | – | CN(C)CCOc1ccccc1OCC(=O)NC[C@H](O)CN1CCc2ccccc2C1 [Compound A88]
< 0.1 | – | O=C(COc1cccc(NC2CCOCC2)c1)NCC(O)CN1CCc2ccccc2C1 (centres unmarked) [Compound A93]
– | 0.101 to 1 | Cn1cnc2ccc(-c3cccc(NCC(O)CN4CCc5ccccc5C4)c3)cc21 (centres unmarked) [Compound D102]
– | 0.101 to 1 | OC(COc1cccc(-c2ccc3ncn(C4CCOCC4)c3c2)c1)CN1CCc2ccccc2C1 (centres unmarked) [Compound D103]
– | 1 to 10 | Cn1ncc2ccc(-c3cccc(OCC(O)CN4CCc5ccccc5C4)c3)cc21 (centres unmarked) [Compound D106]
– | 1 to 10 | OC(COc1cccc(-c2ccc3[nH]ncc3c2)c1)CN1CCc2ccccc2C1 (centres unmarked) [Compound D107]
– | 1 to 10 | Cn1ncc2cc(-c3cccc(OCC(O)CN4CCc5ccccc5C4)c3)ccc21 (centres unmarked) [Compound D108]
– | 0.101 to 1 | Cc1ccncc1-c1cccc(OCC(O)CN2CCc3ccccc3C2)c1 (centres unmarked) [Compound D113]
– | 1 to 10 | Cn1cnc2ccc(-c3cccc(NCC(O)CN4CCc5ccccc5C4)n3)cc21 (centres unmarked) [Compound D117]
– | 0.101 to 1 | Cn1cnc2ccc(-c3ccnc(NCC(O)CN4CCc5ccccc5C4)c3)cc21 (centres unmarked) [Compound D118]
– | 0.101 to 1 | Cn1cnc2ccc(-c3ccnc(NCC(O)CN4CCc5ccccc5C4)n3)cc21 (centres unmarked) [Compound D119]
– | 10 to 40 | OC(COc1cccc(-c2ccc(C(F)(F)F)cc2C(F)(F)F)c1)CN1CCc2ccccc2C1 (centres unmarked) [Compound D124]
– | 1 to 10 | CN(C)c1ncc(-c2cccc(OCC(O)CN3CCc4ccccc4C3)c2)cn1 (centres unmarked) [Compound D125]
– | 1 to 10 | CS(=O)(=O)c1cccc(-c2cccc(OCC(O)CN3CCc4ccccc4C3)c2)c1 (centres unmarked) [Compound D130]
– | 1 to 10 | OC(COc1cccc(-c2ccccc2C(F)(F)F)c1)CN1CCc2ccccc2C1 (centres unmarked) [Compound D132]
– | 1 to 10 | Cc1ccc(F)c(-c2cccc(OCC(O)CN3CCc4ccccc4C3)c2)c1 (centres unmarked) [Compound D138]
– | 1 to 10 | O=C(Nc1cccc(OCC(O)CN2CCc3ccccc3C2)c1)c1cnccn1 (centres unmarked) [Compound D145]
– | 1 to 10 | O=C1NCc2ccc(-c3cccc(OCC(O)CN4CCc5ccccc5C4)c3)cc21 (centres unmarked) [Compound D148]
– | 1 to 10 | O=C1COc2ccc(-c3cccc(OCC(O)CN4CCc5ccccc5C4)c3)cc2N1 (centres unmarked) [Compound D156]
– | 1 to 10 | Cn1ccc(C(=O)Nc2cccc(OCC(O)CN3CCc4ccccc4C3)c2)n1 (centres unmarked) [Compound D162]
– | 10 to 40 | OC(COc1cccc(-c2ccc3cnoc3c2)c1)CN1CCc2ccccc2C1 (centres unmarked) [Compound D166]
– | 1 to 10 | N#Cc1cccc(-c2cccc(OCC(O)CN3CCc4ccccc4C3)c2)c1 (centres unmarked) [Compound D172]
– | 0.101 to 1 | Cn1cnc2ccc(-c3cccc(OC[C@H](O)CN4CCc5ccccc5C4)c3)cc21 [Compound D174]
– | 1 to 10 | OC(COc1cccc(-c2ccc3ncoc3c2)c1)CN1CCc2ccccc2C1 (centres unmarked) [Compound D188]
– | 0.101 to 1 | Cn1cnc2ccc(-c3cccc(OCC(O)CN4CCc5ccccc5C4)c3)nc21 (centres unmarked) [Compound D189]
– | 1 to 10 | CC(C)Oc1ccc(F)c(-c2cccc(OCC(O)CN3CCc4ccccc4C3)c2)c1 (centres unmarked) [Compound D201]
